Key:
[1] = target: Recombinant full length human OGA enzyme (Homo sapiens (Human), UniProt O60502); test: OGA Enzyme Inhibition Biochemical Assay; conditions: 1 nM OGA, 100 μM 4-MUGlcNAc, pH 6.4
How it was run: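 Full-length recombinant human OGA with fluorogenic 4-MUGlcNAc in McIlvaine buffer pH 6.4, 0.01% BSA; 90 min at room temperature, glycine pH 10 quench, fluorescence Ex 355/Em 460 nm. 10-point, 4-fold dilution from 20 μM; 4-parameter variable-slope fit.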

[2] = target: OGA (S400 O-GLCNAC), HEK-293T cells transfected with Tau-V5 (Homo sapiens (Human), UniProt O60502); test: Cellular OGA-Tau MSD Assay; format: cell-based; conditions: HEK-293T cells, Tau-S400-GlcNAc MSD readout
Chain of OGA (S400 O-GLCNAC), HEK-293T cells transfected with Tau-V5 (O60502 whole entry): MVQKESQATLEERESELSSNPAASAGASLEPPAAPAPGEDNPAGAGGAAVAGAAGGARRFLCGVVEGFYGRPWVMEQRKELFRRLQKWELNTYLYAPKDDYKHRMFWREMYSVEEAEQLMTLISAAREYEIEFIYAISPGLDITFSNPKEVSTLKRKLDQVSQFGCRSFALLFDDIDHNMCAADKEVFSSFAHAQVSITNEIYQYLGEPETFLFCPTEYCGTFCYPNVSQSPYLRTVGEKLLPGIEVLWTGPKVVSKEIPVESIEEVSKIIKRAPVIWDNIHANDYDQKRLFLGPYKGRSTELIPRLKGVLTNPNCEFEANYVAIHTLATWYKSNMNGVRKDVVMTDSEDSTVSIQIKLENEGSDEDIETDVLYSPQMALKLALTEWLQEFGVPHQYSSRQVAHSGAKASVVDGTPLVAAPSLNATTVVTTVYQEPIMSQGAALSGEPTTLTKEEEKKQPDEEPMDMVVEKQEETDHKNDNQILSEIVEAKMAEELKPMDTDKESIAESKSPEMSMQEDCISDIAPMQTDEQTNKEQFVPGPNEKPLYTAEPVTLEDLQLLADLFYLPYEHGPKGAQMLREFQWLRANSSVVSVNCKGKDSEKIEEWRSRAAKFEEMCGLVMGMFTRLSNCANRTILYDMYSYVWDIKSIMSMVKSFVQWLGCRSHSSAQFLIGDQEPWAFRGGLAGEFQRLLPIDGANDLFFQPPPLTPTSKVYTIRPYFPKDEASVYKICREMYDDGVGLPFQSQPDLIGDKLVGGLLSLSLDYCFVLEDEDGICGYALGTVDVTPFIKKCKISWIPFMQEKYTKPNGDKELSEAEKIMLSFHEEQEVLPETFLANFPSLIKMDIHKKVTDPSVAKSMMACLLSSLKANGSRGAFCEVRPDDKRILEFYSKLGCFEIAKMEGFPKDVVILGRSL
How it was run: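 HEK-293T cells transfected with OGA and Tau-V5 plasmids were treated overnight at 37° C with a 10-point, 3-fold titration from 1 uM. Lysates went onto V5-antibody MSD plates to capture Tau, probed with a Tau O-GlcNAc antibody and read by electrochemiluminescence; IC50 from a 4-parameter fit.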

P-gp (MDR1) = test: MDR1-MDCK Efflux Ratio Assay; format: in vitro ADME; conditions: dog, MDCK-MDR1, pH 7.4, MDR1-MDCK cells, 2 hr, pH 7.4; read-out: MDR1-MDCK Efflux Ratio (B-A/A-B)
How it was run: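 Bidirectional (apical↔basolateral) transport across confluent MDR1-MDCK monolayers in HBSS/10 mM HEPES pH 7.4, receiver buffer with 1% BSA; 2 hr at 37° C, 5% CO2. Donor sampled at 0 and 120 min, receiver at 120 min, quantified by LC-MS/MS in triplicate. Papp, efflux ratio and percent recovery calculated.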

[3] = Rat Liver Microsome Stability Assay; format: in vitro ADME; conditions: rat liver microsomes, 1 uM compound

Chain of Recombinant full length human OGA enzyme (O60502 whole entry): as above

SMILES	IC50 [1] [nM]	IC50 [2] [nM]	efflux ratio at 2 h (P-gp (MDR1))	RLM % Qh (%) [3] [%]
CC(=O)Nc1ncc(CN2C[C@H](Oc3ncc(F)cn3)C[C@@H]2C)s1 [Example 1-86, N-(5-(((2S,4R)-4-((5-fluoropyrimidin-2-yl)oxy)-2-methylpyrrolidin-1-yl)methyl)thiazol-2-yl)acetamide]	< 1	< 1	11.2	26
CC(=O)Nc1ncc(CN2C[C@H](Oc3cc(C)nc(C)c3)C[C@@H]2C)s1 [Example 1-60, N-(5-(((2S,4R)-4-((2,6-dimethylpyridin-4-yl)oxy)-2-methylpyrrolidin-1-yl)methyl)thiazol-2-yl)acetamide]	< 1	1	21.3	56
CC(=O)Nc1nc(F)c(CN2C[C@H](Oc3cc(C)nc(C)c3)C[C@@H]2C)s1 [Example 1-50, N-(5-(((2S,4R)-4-((2,6-dimethylpyridin-4-yl)oxy)-2-methylpyrrolidin-1-yl)methyl)-4-fluorothiazol-2-yl)acetamide]	< 1	1	22.4	47
[2H][C@]1(Oc2cc(OC)ncn2)C[C@H](C)N(Cc2cnc(NC(C)=O)s2)C1 [Example 1-164, N-(5-(((2S,4S)-4-((6-methoxypyrimidin-4-yl)oxy)-2-methylpyrrolidin-1-yl-4-d)methyl)thiazol-2-yl)acetamide]	9.7	35	3.8	49
COc1cc(O[C@H]2C[C@H](C)N(Cc3cnc(NC(C)=O)s3)C2)ncn1 [Example 1-39, N-(5-(((2S,4S)-4-((6-methoxypyrimidin-4-yl)oxy)-2-methylpyrrolidin-1-yl)methyl)thiazol-2-yl)acetamide]	55	30	4.5	57
CC(=O)Nc1nc(F)c(CN2C[C@H](Oc3cc(C)nc(C)c3)C[C@H]2C)s1 (stereo in doubt) [Example 1-51, N-(5-(((2R,4R)-4-((2,6-dimethylpyridin-4-yl)oxy)-2-methylpyrrololidin-1-yl)methyl)-4-fluorothiazol-2-yl)acetamide]	2	24	23.3	51
CC(=O)Nc1ncc(CN2CC[C@H](Oc3cc(C)nc(C)c3)C2)s1 [Example 1-58, (S)—N-(5-((3-((2,6-dimethylpyridin-4-yl)oxy)pyrrolidin-1-yl)methyl)thiazol-2-yl)acetamide]	520	> 1000	28.5	16
COc1cc(O[C@H]2CC[C@H](C)N(Cc3sc(NC(C)=O)nc3F)C2)ncn1 [Example 1-34, N-(4-fluoro-5-(((2S,5S)-5-((6-methoxypyrimidin-4-yl)oxy)-2-methylpiperidin-1-yl)methyl)thiazol-2-yl)acetamide]	< 1	2	4.1	90
CC(=O)Nc1ncc(CN2C[C@H](Oc3cc(NC(C)C)ncn3)C[C@@H]2C)s1 [Example 1-136, N-(5-(((2S,4R)-4-((6-(isopropylamino)pyrimidin-4-yl)oxy)-2-methylpyrrolidin-1-yl)methyl)thiazol-2-yl)acetamide]	< 1	2	32	24
CC(=O)Nc1nc(F)c(CN2C[C@H](Oc3ncc(F)cn3)C[C@@H]2C)s1 [Example 1-112, N-(4-fluoro-5-(((2S,4R)-4-((5-fluoropyrimidin-2-yl)oxy)-2-methylpyrrolidin-1-yl)methyl)thiazol-2-yl)acetamide]	< 1	1	5.3	45
CC(=O)Nc1nc(F)c(CN2C[C@H](Oc3cc(Cl)ccn3)C[C@@H]2C)s1 [Example 1-101, N-(5-(((2S,4R)-4-((4-chloropyridin-2-yl)oxy)-2-methylpyrrolidin-1-yl)methyl)-4-fluorothiazol-2-yl)acetamide]	< 1	3	1.5	88
COc1ccc(O[C@@H]2C[C@H](C)N(Cc3sc(NC(C)=O)nc3F)C2)cn1 [Example 1-114, N-(4-fluoro-5-(((2S,4R)-4-((6-methoxypyridin-3-yl)oxy)-2-methylpyrrolidin-1-yl)methyl)thiazol-2-yl)acetamide]	< 1	2	1.9	69
CC(=O)Nc1nc(F)c(CN2C[C@H](Oc3cc(C)nc(C)c3)CC[C@@H]2C)s1 [Example 1-57, N-(5-(((2S,5R)-5-((2,6-dimethylpyridin-4-yl)oxy)-2-methylpiperidin-1-yl)methyl)-4-fluorothiazol-2-yl)acetamide]	< 1	3	26.4	93
COCCOc1cc(O[C@@H]2C[C@H](C)N(Cc3cnc(NC(C)=O)s3)C2)ncn1 [Example 1-122, N-(5-(((2S,4R)-4-((6-(2-methoxyethoxy)pyrimidin-4-yl)oxy)-2-methylpyrrolidin-1-yl)methyl)thiazol-2-yl)acetamide]	< 1	3	2.1	32
CCNc1cc(O[C@@H]2C[C@H](C)N(Cc3cnc(NC(C)=O)s3)C2)ncn1 [Example 1-135, N-(5-(((2S,4R)-4-((6-(ethylamino)pyrimidin-4-yl)oxy)-2-methylpyrrolidin-1-yl)methyl)thiazol-2-yl)acetamide]	< 1	1	76.5	36
COc1cnc(O[C@@H]2C[C@H](C)N(Cc3sc(NC(C)=O)nc3F)C2)nc1 [Example 1-89, N-(4-fluoro-5-(((2S,4R)-4-((5-methoxypyrimidin-2-yl)oxy)-2-methylpyrrolidin-1-yl)methyl)thiazol-2-yl)acetamide]	< 1	< 1	19.7	66
CC(=O)Nc1ncc(CN2CCC[C@@H](Oc3cc(C)nc(C)c3)C2)s1 [Example 1-65, (R)—N-(5-((3-((2,6-dimethylpyridin-4-yl)oxy)piperidin-1-yl)methyl)thiazol-2-yl)acetamide]	2.1	18	17	85
[2H]C([2H])([2H])Oc1cc(O[C@@H]2C[C@H](C)N(Cc3cnc(NC(C)=O)s3)C2)ncn1 (single isomer, unassigned) [Example 1-154]	< 1	2	4.3	27
CO[C@H]1C[C@@H](Oc2cc(O[C@@H]3C[C@H](C)N(Cc4cnc(NC(C)=O)s4)C3)ncn2)C1 [Example 1-123, N-(5-(((2S,4R)-4-((6-((1s,3S)-3-methoxycyclobutoxy)pyrimidin-4-yl)oxy)-2-methylpyrrolidin-1-yl)methyl)thiazol-2-yl)acetamide]	1.1	5	5.7	55
CC(=O)Nc1ncc(CN2C[C@H](Oc3cc(C(F)F)ncn3)C[C@@H]2C)s1 [Example 1-18, N-(5-(((2S,4R)-4-((6-(difluoromethyl)pyrimidin-4-yl)oxy)-2-methylpyrrolidin-1-yl)methyl)thiazol-2-yl)acetamide]	2.4	12	11.7	48
COc1cc(O[C@@H]2C[C@@H](C)N(Cc3cnc(NC(C)=O)s3)C2)ncn1 [Example 1-38, N-(5-(((2R,4R)-4-((6-methoxypyrimidin-4-yl)oxy)-2-methylpyrrolidin-1-yl)methyl)thiazol-2-yl)acetamide]	250	> 1000	3.9	32
COc1cccc(O[C@@H]2C[C@H](C)N(Cc3sc(NC(C)=O)nc3F)C2)n1 [Example 1-99, N-(4-fluoro-5-(((2S,4R)-4-((6-methoxypyridin-2-yl)oxy)-2-methylpyrrolidin-1-yl)methyl)thiazol-2-yl)acetamide]	< 1	1	2.2	95
CO[C@H]1C[C@H](Oc2cc(O[C@@H]3C[C@H](C)N(Cc4cnc(NC(C)=O)s4)C3)ncn2)C1 [Example 1-120, N-(5-(((2S,4R)-4-((6-((1r,3R)-3-methoxycyclobutoxy)pyrimidin-4-yl)oxy)-2-methylpyrrolidin-1-yl)methyl)thiazol-2-yl)acetamide]	< 1	2	10.3	64
CC(=O)Nc1nc(F)c(CN2C[C@H](Oc3ccc(F)nc3)C[C@@H]2C)s1 [Example 1-85, N-(4-fluoro-5-(((2S,4R)-4-((6-fluoropyridin-3-yl)oxy)-2-methylpyrrolidin-1-yl)methyl)thiazol-2-yl)acetamide]	< 1	2	3.8	60

Source: US20240308995A1, “O-GLYCOPROTEIN-2-ACETAMIDO-2-DEOXY-3-D-GLUCOPYRANOSIDASE INHIBITORS” (BIOGEN MA INC., priority 2018, published 2024)
